Reference: ChEMBL document CHEMBL4002627, “Quinolidene based monocarbonyl curcumin analogues as promising antimycobacterial agents: Synthesis and molecular docking study” (Bioorg Med Chem Lett, 2017)
In brackets after ≈: the same amount, converted by molar mass.

Tests used:
[1] = Cytotoxicity against human A549 cells assessed as growth inhibition at 30 ug/ml after 48 hrs by MTT assay relative to control; type: cell-based; details: read-out: GI
[2] = Cytotoxicity against human HCT116 cells assessed as growth inhibition at 30 ug/ml after 48 hrs by MTT assay relative to control; type: cell-based, HCT-116; details: read-out: GI
[3] = Cytotoxicity against human A549 cells assessed as growth inhibition at 10 ug/ml after 48 hrs by MTT assay relative to control; type: cell-based; details: read-out: GI
[4] = Cytotoxicity against human HCT116 cells assessed as growth inhibition at 10 ug/ml after 48 hrs by MTT assay relative to control; type: cell-based, HCT-116; details: read-out: GI
MCF7 = assay: (§1) Cytotoxicity against human MCF7 cells assessed as growth inhibition after 48 hrs by MTT assay; type: cell-based; details: mcf7, 48 h
[5] = as §1; type: cell-based; details: MCF7 cells
[6] = system: Mycobacterium tuberculosis; assay: Antimycobacterial activity against dormant state of Mycobacterium tuberculosis H37Ra assessed as growth inhibition at 30 ug/ml after 12 days by XTT reduction menadione assay relative to control; type: functional; details: 288 h, read-out: GI
Pseudomonas fluorescens = assay: Antibacterial activity against Pseudomonas fluorescens ATCC 13525 after 8 hrs; type: functional; details: ATCC 13525, 8 h
[7] = Cytotoxicity against human HCT116 cells assessed as growth inhibition at 3 ug/ml after 48 hrs by MTT assay relative to control; type: cell-based, HCT-116; details: read-out: GI
[8] = Selectivity index, ratio of GI90 for human HCT116 cells to MIC90 for dormant state of dormant state of Mycobacterium bovis BCG; type: toxicity; details: read-out: Selectivity Index
[9] = Cytotoxicity against human A549 cells assessed as growth inhibition at 3 ug/ml after 48 hrs by MTT assay relative to control; type: cell-based; details: read-out: GI
Staphylococcus aureus = assay: Antibacterial activity against Staphylococcus aureus ATCC 29213 after 12 hrs; type: functional; details: ATCC 29213, 12 h
A549 = assay: (§2) Cytotoxicity against human A549 cells assessed as growth inhibition after 48 hrs by MTT assay; type: cell-based; details: a549, 48 h
[10] = as §2; type: cell-based; details: A549 cells
[11] = Selectivity index, ratio of GI90 for human MCF7 cells to MIC90 for dormant state of dormant state of Mycobacterium bovis BCG; type: toxicity; details: read-out: Selectivity Index
[12] = Selectivity index, ratio of GI90 for human A549 cells to MIC90 for dormant state of Mycobacterium tuberculosis H37Ra; type: toxicity; details: read-out: Selectivity Index
[13] = Selectivity index, ratio of GI90 for human A549 cells to MIC90 for dormant state of dormant state of Mycobacterium bovis BCG; type: toxicity; details: read-out: Selectivity Index
Bacillus subtilis = assay: Antibacterial activity against Bacillus subtilis ATCC 23857 after 12 hrs; type: functional; details: ATCC 23857, 12 h
[14] = system: Mycobacterium tuberculosis; assay: Antimycobacterial activity against dormant state of Mycobacterium tuberculosis H37Ra by two fold dilution method; type: functional
[15] = system: Mycobacterium tuberculosis; assay: Antimycobacterial activity against dormant state of Mycobacterium tuberculosis H37Ra assessed as growth inhibition at 10 ug/ml after 12 days by XTT reduction menadione assay relative to control; type: functional; details: 288 h, read-out: GI
Escherichia coli = assay: Antibacterial activity against Escherichia coli ATCC […] after 8 hrs; type: functional
[16] = Selectivity index, ratio of GI90 for human MCF7 cells to MIC90 for dormant state of Mycobacterium tuberculosis H37Ra; type: toxicity; details: read-out: Selectivity Index
[17] = Selectivity index, ratio of GI90 for human HCT116 cells to MIC90 for dormant state of Mycobacterium tuberculosis H37Ra; type: toxicity; details: read-out: Selectivity Index
[18] = Cytotoxicity against human MCF7 cells assessed as growth inhibition at 3 ug/ml after 48 hrs by MTT assay relative to control; type: cell-based; details: read-out: GI
HCT-116 = assay: (§3) Cytotoxicity against human HCT116 cells assessed as growth inhibition after 48 hrs by MTT assay; type: cell-based; details: hct-116, 48 h
[19] = as §3; type: cell-based, HCT-116; details: HCT116 cells
[20] = system: Mycobacterium tuberculosis; assay: Antimycobacterial activity against dormant state of Mycobacterium tuberculosis H37Ra assessed as growth inhibition at 3 ug/ml after 12 days by XTT reduction menadione assay relative to control; type: functional; details: 288 h, read-out: GI
[21] = Cytotoxicity against human MCF7 cells assessed as growth inhibition at 30 ug/ml after 48 hrs by MTT assay relative to control; type: cell-based; details: read-out: GI
[22] = Cytotoxicity against human MCF7 cells assessed as growth inhibition at 10 ug/ml after 48 hrs by MTT assay relative to control; type: cell-based; details: read-out: GI

Compound | inhibition at 48 h, 30 ug/ml [1] [%] | inhibition at 48 h, 30 ug/ml [2] [%] | inhibition at 48 h, 10 ug/ml [3] [%] | inhibition at 48 h, 10 ug/ml [4] [%] | GI90 (MCF7) [µg/mL] | GI50 at 48 h [5] [µg/mL] | inhibition of growth at 30 µg/mL [6] [%] | MIC50 (Pseudomonas fluorescens) [µg/mL] | MIC90 (Pseudomonas fluorescens) [µg/mL] | inhibition at 48 h, 3 ug/ml [7] [%] | selectivity ratio [8] | inhibition at 48 h, 3 ug/ml [9] [%] | MIC50 (Staphylococcus aureus) [µg/mL] | MIC90 (Staphylococcus aureus) [µg/mL] | GI90 (A549) [µg/mL] | GI50 at 48 h [10] [µg/mL] | selectivity ratio [11] | selectivity ratio [12] | selectivity ratio [13] | MIC50 (Bacillus subtilis) [µg/mL] | further results
COc1ccc2cc(/C=C3\CNC/C(=C\c4cc5ccc(OC)cc5nc4Cl)C3=O)c(Cl)nc2c1 | 36.3 | 67.7 | 29.8 | 50.9 | > 100 | > 100 | 65.6 | > 30 | > 30 | 26.9 | > 37 | 3.8 | > 30 | > 30 | > 100 | > 100 | > 37 | > 3 | > 37 | > 30 | MIC90 (Bacillus subtilis): > 30 µg/mL; MIC50 [14]: 2.8 µg/mL (≈ 5.53 µM); MIC90 [14]: > 30 µg/mL; inhibition of growth at 10 µg/mL [15]: 54.2%; MIC50 (Escherichia coli): > 30 µg/mL; MIC90 (Escherichia coli): > 30 µg/mL; selectivity ratio [16]: > 3; selectivity ratio [17]: > 3; inhibition at 48 h, 3 ug/ml [18]: 28%; GI90 (HCT-116): > 100 µg/mL; GI50 at 48 h [19]: > 100 µg/mL; inhibition of growth at 3 µg/mL [20]: 50.9%; inhibition at 48 h, 30 ug/ml [21]: 60.9%; inhibition at 48 h, 10 ug/ml [22]: 52.1%
COc1ccc2cc(/C=C3\CN(C)C/C(=C\c4cc5ccc(OC)cc5nc4Cl)C3=O)c(Cl)nc2c1 | 0 | 14.1 | 0 | -1.3 | > 100 | > 100 | 98.9 | > 30 | > 30 | -8.6 | > 10 | 0 | > 30 | > 30 | > 100 | > 100 | > 10 | > 12 | > 10 | > 30 | MIC90 (Bacillus subtilis): > 30 µg/mL; MIC50 [14]: 2.3 µg/mL (≈ 4.42 µM); MIC90 [14]: 7.8 µg/mL (≈ 15 µM); inhibition of growth at 10 µg/mL [15]: 100%; MIC50 (Escherichia coli): > 30 µg/mL; MIC90 (Escherichia coli): > 30 µg/mL; selectivity ratio [16]: > 12; selectivity ratio [17]: > 12; inhibition at 48 h, 3 ug/ml [18]: -13.4%; GI90 (HCT-116): > 100 µg/mL; GI50 at 48 h [19]: > 100 µg/mL; inhibition of growth at 3 µg/mL [20]: 66.1%; inhibition at 48 h, 30 ug/ml [21]: 44.1%; inhibition at 48 h, 10 ug/ml [22]: -5.5%
